Assay results taken from paper PMC4362054, “C-5’-Triazolyl-2’-oxa-3’-aza-4’a-carbanucleosides: Synthesis and biological evaluation” (Beilstein Journal of Organic Chemistry, 2015).
Each block holds one compound with its values, some of them ahead of it.

Tests used:
[1] = Inhibition of cell proliferation (MTT method), BS-C-1 cells; type: cell-based; settings: African green monkey, BS-C-1 cells (African green monkey kidney), concentration which inhibited cell growth by 50% vs control cultures, mean of three assays
[2] = Inhibition of cell proliferation (MTT method), Vero cells; type: cell-based; settings: African green monkey, Vero cells (African green monkey kidney), concentration which inhibited cell growth by 50% vs control cultures, mean of three assays
[3] = Inhibition of cell proliferation (MTT method), HFF cells; type: cell-based, human; settings: human, HFF cells (human foreskin fibroblasts), concentration which inhibited cell growth by 50% vs control cultures, mean of three assays
HEp-2 cells = experiment: Inhibition of cell proliferation (MTT method), HEp-2 cells; type: cell-based, human; settings: concentration which inhibited cell growth by 50% vs control cultures, mean of three assays, read-out: CC50 HEp2
[4] = Inhibition of cell proliferation (MTT method), MDCK cells; type: cell-based; settings: dog, MDCK cells (Madin-Darby canine kidney), concentration which inhibited cell growth by 50% vs control cultures, mean of three assays
HFF cells = experiment: Inhibition of cell proliferation (MTT method), HFF cells; type: cell-based, human; settings: concentration which inhibited cell growth by 50% vs control cultures, mean of three assays
[5] = statement in words; reference not given; cited from earlier work
[6] = statement in words; reference not given; cited from earlier work; remark: listed apart in the source
[7] = Inhibition of cell proliferation (MTT method), HEp-2 cells; type: cell-based, human; settings: human, HEp-2 cells (human epidermoid carcinoma larynx), concentration which inhibited cell growth by 50% vs control cultures, mean of three assays, read-out: CC50 HEp2

Compound: Cc1cn([C@@H]2C[C@H](Cn3cc(-c4ccc(F)cc4)nn3)N(C)O2)c(=O)[nH]c1=O [13f]
CC50 [1]: 10 µM | melting point: 269 to 271 °C | CC50 [2]: 10 µM | CC50 [3]: 40 µM | CC50 (HEp-2 cells): 40 µM | CC50 [4]: 10 µM

Compound: Cc1cn([C@@H]2C[C@H](CO)N(C)O2)c(=O)[nH]c1=O [compound 8, (3′RS,5′SR)-2′-N-methyl-3′-hydroxymethyl-1′,2′-isoxazolidin-5′-ylthymine]
cytotoxicity [5]: do not show any cytotoxicity | antiviral activity [6]: endowed with antiviral activity

Compound: Cc1cn([C@@H]2C[C@H](Cn3cc(CO)nn3)N(C)O2)c(=O)[nH]c1=O [13b]
CC50 [1]: 30 µM | melting point: 205 to 210 °C | CC50 [2]: 40 µM | CC50 [3]: 30 µM | CC50 (HEp-2 cells): 40 µM | CC50 [4]: 30 µM

Compound: CCCCCc1ccc(-c2cn(C[C@H]3C[C@@H](n4cc(C)c(=O)[nH]c4=O)ON3C)nn2)cc1 [13g]
CC50 [1]: 10 µM | melting point: 259 to 260 °C | CC50 [2]: 10 µM | CC50 (HFF cells): 5 µM | CC50 [7]: 20 µM | CC50 [4]: 10 µM

Compound: COc1ccc(-c2cn(C[C@H]3C[C@@H](n4cc(C)c(=O)[nH]c4=O)ON3C)nn2)cc1 [13e]
CC50 [1]: 20 µM | melting point: 215 to 218 °C | CC50 [2]: 20 µM | CC50 (HFF cells): 5 µM | CC50 (HEp-2 cells): 40 µM | CC50 [4]: 20 µM

Compound: Cc1cn([C@@H]2C[C@H](Cn3cc(CCO)nn3)N(C)O2)c(=O)[nH]c1=O [13a]
CC50 [1]: 10 µM | melting point: 215 to 218 °C | CC50 [2]: 10 µM | CC50 [3]: 10 µM | CC50 (HEp-2 cells): 40 µM | CC50 [4]: 10 µM

Compound: CCCc1cn(C[C@H]2C[C@@H](n3cc(C)c(=O)[nH]c3=O)ON2C)nn1 [13c]
CC50 [1]: 20 µM | melting point: 132 to 137 °C | CC50 [2]: 20 µM | CC50 (HFF cells): 5 µM | CC50 (HEp-2 cells): 40 µM | CC50 [4]: 20 µM

Compound: Cc1cn([C@@H]2C[C@H](Cn3cc(-c4ccccc4)nn3)N(C)O2)c(=O)[nH]c1=O [13d]
CC50 [1]: 20 µM | melting point: 268 to 272 °C | CC50 [2]: 20 µM | CC50 (HFF cells): 5 µM | CC50 [7]: 20 µM | CC50 [4]: 20 µM

More lines, main results first:

melting point: 198 to 201 °C
Compound: Cc1cn([C@H]2C[C@H](Cn3cc(CO)nn3)N(C)O2)c(=O)[nH]c1=O [14b]
CC50 [1]: 10 µM | CC50 [2]: 20 µM | CC50 [3]: 20 µM | CC50 (HEp-2 cells): 40 µM | CC50 [4]: 20 µM

melting point: 202 to 205 °C
Compound: COc1ccc(-c2cn(C[C@H]3C[C@H](n4cc(C)c(=O)[nH]c4=O)ON3C)nn2)cc1 [14e]
CC50 [1]: 20 µM | CC50 [2]: 20 µM | CC50 (HFF cells): 5 µM | CC50 (HEp-2 cells): 40 µM | CC50 [4]: 20 µM

melting point: 168 to 170 °C
Compound: CCCc1cn(C[C@H]2C[C@H](n3cc(C)c(=O)[nH]c3=O)ON2C)nn1 [14c]
CC50 [1]: 20 µM | CC50 [2]: 20 µM | CC50 (HFF cells): 5 µM | CC50 (HEp-2 cells): 40 µM | CC50 [4]: 20 µM

melting point: 245 to 248 °C
Compound: CCCCCc1ccc(-c2cn(C[C@H]3C[C@H](n4cc(C)c(=O)[nH]c4=O)ON3C)nn2)cc1 [14g]
CC50 [1]: 10 µM | CC50 [2]: 10 µM | CC50 (HFF cells): 5 µM | CC50 [7]: 20 µM | CC50 [4]: 10 µM

melting point: 230 to 233 °C
Compound: Cc1cn([C@H]2C[C@H](Cn3cc(-c4ccc(F)cc4)nn3)N(C)O2)c(=O)[nH]c1=O [14f]
CC50 [1]: 20 µM | CC50 [2]: 20 µM | CC50 (HFF cells): 5 µM | CC50 (HEp-2 cells): 40 µM | CC50 [4]: 20 µM

melting point: 202 to 206 °C
Compound: Cc1cn([C@H]2C[C@H](Cn3cc(CCO)nn3)N(C)O2)c(=O)[nH]c1=O [14a]
CC50 [1]: 20 µM | CC50 [2]: 20 µM | CC50 [3]: 20 µM | CC50 (HEp-2 cells): 40 µM | CC50 [4]: 20 µM

melting point: 233 to 235 °C
Compound: Cc1cn([C@H]2C[C@H](Cn3cc(-c4ccccc4)nn3)N(C)O2)c(=O)[nH]c1=O [14d]
CC50 [1]: 5 µM | CC50 [2]: 5 µM | CC50 (HFF cells): 5 µM | CC50 [7]: 5 µM | CC50 [4]: 5 µM
